Data taken from patent US20130196052A1, “ANTIMICROBIAL/ANTIBACTERIAL MEDICAL DEVICES COATED WITH TRADITIONAL CHINESE MEDICINES” (ETHICON, INC., priority 2009, published 2013).

Tests used:
[1] = test system: Micrococcus catarrhalis, Staphylococcus aureus, Bacillus influenzae, pneumococcus, Escherichia coli, Bacillus dysenteria, Bacillus proteus, Bacillus …; conditions: in words; cited from earlier work
[2] = in words; cited from earlier work
[3] = test system: Bacillus typhi, and Leptopira; conditions: in words; cited from earlier work
susceptible strains = conditions: in words; cited from earlier work
[4] = Particle size analysis by laser diffraction; assay type: physicochemical; conditions: commercial grade, needle-like crystals
Method: Studies were run using sutures coated with the sodium houttuyfonate antimicrobial coatings disclosed herein, with the sodium houttuyfonate coatings prepared using either ground or unground sodium houttuyfonate. The sutures were coated at two coating levels, using the coating method described hereinabove. Particle size analysis was performed using a Beckman Coulter model LS 320 laser diffraction particle size analyzer. Results for these studies are presented below in Tables 5-7 and graphically depicted in FIGS. 1 and 2.

[5] = cited from earlier work

Structure (SMILES): CCCCCCCCCC(=O)CC=O [Houttuynin, decanoyl acetaldehyde]
- inhibitory effect in vitro [1]: marked inhibitory effect
- stability [2]: unstable and prone to polymerize
- effect in vitro [3]: strong effect

Structure (SMILES): Oc1cc(Cl)ccc1Oc1ccc(Cl)cc1Cl [triclosan]
- mode of antibacterial activity (susceptible strains): predominantly bacteriostatic activity

Structure (SMILES): CCCCCCCCCC(=O)CC(O)S(=O)(=O)O (centres unmarked) [Commercial grade sodium houttuyfonate, sodium houttuyfonate]
- particle size distribution, mean [4]: approximately 145 μm

Structure (SMILES): CCCCCCCCCC(=O)CC(O)S(=O)(=O)O (centres unmarked) [sodium houttuyfonate]
- solubility in cold water ([5]; cold water): only slightly soluble
- solubility in most organic solvents ([5]; organic solvents such as acetonitrile and methanol): only slightly soluble
- stability [2]: more stable
